For the test, the system named is aerobic heterotrophs. Kind of test: Bacteria Resistance Testing: acids added to infected electrodeposition permeate, spread plate count on R2A agar. It counts as cell-based. The following applies: reactors rolled at 32° C.; for Bacteria Count 3 day: plated at 3 days; for Bacteria Count 7 day: plated at 7 days; for Bacteria Count 10 day: plated at 10 days. The procedure: Infected rinsewater from an online electrodeposition bath tank (containing E6100, commercially available from PPG Industries, Inc.) having a bacterial count of 1.5×10^6 cfu/mL was used to inoculate filter-sterilized ultrafiltrate (“permeate”) collected from the same line. The infected rinsewater was diluted by a factor of 10^3 into the sterile permeate. The infected permeate was added to reactors. The various acids listed below in the following Table 2 were prepared as 1% solutions in water and tested at 1000, 500, and 200 ppm of active material. Reactors were rolled for 10 days at 32° C. and were plated for bacteria counts at 3, 7, and 10 days.
The enumeration of aerobic heterotrophs in the reactors utilized the standard spread plate method as described in Standard Methods for the Examination of Water and Wastewater, 1992, section 9215C. Bacterial counts were examined using R2A agar plates. 100 μL of a suitable dilution of sample was pipetted onto the surface of the media and spread with an alcohol and flame sterilized glass rod. The plates were inverted and incubated for 3 days at 32° C. with periodic examination. Colony forming units were counted on a New Brunswick Bactronic Colony Counter. A target of 30 to 300 cfu per plate was considered a valid count.

[1] abbreviates: acid at 200 ppm of active material.
Setting [2] is: acid at 500 ppm of active material.
Where [3] appears, read: acid at 1000 ppm of active material.

The structures appear in SMILES notation.

As for `O=C(O)COc1ccccc1` [Phenoxyacetic, phenoxyacetic acid], under setting [1], the “Bacteria Count 3 day” value is on record as 4.0 × 10^6, the “Bacteria Count 7 day” value is listed as 8.0 × 10^6 and the “Bacteria Count 10 day” value is 3.2 × 10^7. Further, under setting [2], the “Bacteria Count 3 day” value is <4.0 × 10^1, the “Bacteria Count 7 day” value is reported as <4.0 × 10^1 and the “Bacteria Count 10 day” value was <4.0 × 10^1. Also, under setting [3], the “Bacteria Count 3 day” value is recorded as <4.0 × 10^1, the “Bacteria Count 7 day” value is listed as <4.0 × 10^1 and the “Bacteria Count 10 day” value is reported as <4.0 × 10^1.
Turning to `CC(O)C(=O)O` (stereo not drawn) [Lactic, lactic acid, reference compound], under setting [2], the “Bacteria Count 3 day” value is recorded as 7.2 × 10^7, the “Bacteria Count 7 day” value was 7.8 × 10^7 and the “Bacteria Count 10 day” value is recorded as 2.4 × 10^7. Besides, under setting [3], the “Bacteria Count 3 day” value is on record as 2.4 × 10^7, the “Bacteria Count 7 day” value is listed as 5.0 × 10^7 and the “Bacteria Count 10 day” value is on record as 2.3 × 10^7.
As for `COCCOCCOCC(=O)O` [2-[2-(2-methoxyethoxy)-ethox]acetic, 2-[2-(methoxyethoxy)ethoxy]acetic acid], under setting [1], the “Bacteria Count 3 day” value is recorded as 3.2 × 10^6, the “Bacteria Count 7 day” value was 4.0 × 10^7 and the “Bacteria Count 10 day” value is on record as 5.2 × 10^7. Besides, under setting [2], the “Bacteria Count 3 day” value is recorded as <4.0 × 10^1, the “Bacteria Count 7 day” value is given as >1.2 × 10^4 and the “Bacteria Count 10 day” value is recorded as 6.4 × 10^6. Moreover, under setting [3], the “Bacteria Count 3 day” value is on record as <4.0 × 10^1, the “Bacteria Count 7 day” value is <4.0 × 10^1 and the “Bacteria Count 10 day” value was <4.0 × 10^1.
For the compound `CCOCC(=O)O` [Ethoxyacetic, ethoxyacetic acid], the “Bacteria Count 3 day” value is 1.3 × 10^6 under setting [1], <4.0 × 10^1 under setting [2] and <4.0 × 10^1 under setting [3]. Moreover, the “Bacteria Count 7 day” value is, setting by setting: under setting [1], 3.2 × 10^7; under setting [2], <4.0 × 10^1; under setting [3], <4.0 × 10^1. The “Bacteria Count 10 day” value by setting is: under setting [1], 4.8 × 10^7; under setting [2], <4.0 × 10^1; under setting [3], <4.0 × 10^1.
For `COCCOCC(=O)O` [2-(2-methoxyethoxy)acetic, 2-(2-methoxyethoxy)acetic acid], under setting [1], the “Bacteria Count 3 day” value is reported as 8.0 × 10^6, the “Bacteria Count 7 day” value is 2.8 × 10^7 and the “Bacteria Count 10 day” value is 2.3 × 10^7. Besides, under setting [2], the “Bacteria Count 3 day” value is given as <4.0 × 10^1, the “Bacteria Count 7 day” value is on record as >1.2 × 10^4 and the “Bacteria Count 10 day” value is on record as 4.0 × 10^6. Besides, under setting [3], the “Bacteria Count 3 day” value is recorded as <4.0 × 10^1, the “Bacteria Count 7 day” value is given as <4.0 × 10^1 and the “Bacteria Count 10 day” value is <4.0 × 10^1.
On to `COCC(=O)O` [Methoxyacetic, methoxyacetic acid], for which the “Bacteria Count 3 day” value by setting is: under setting [1], <4.0 × 10^1; under setting [2], <4.0 × 10^1; under setting [3], <4.0 × 10^1. Also, the “Bacteria Count 7 day” value reads like this: under setting [1], <4.0 × 10^2; under setting [2], <4.0 × 10^1; under setting [3], <4.0 × 10^1. In addition, the “Bacteria Count 10 day” value is given as <4.0 × 10^1 under setting [1], <4.0 × 10^1 under setting [2] and <4.0 × 10^1 under setting [3].
On to `CCCCOCC(=O)O` [Butoxyacetic, butoxyacetic acid], for which, under setting [1], the “Bacteria Count 3 day” value is reported as 3.0 × 10^6, the “Bacteria Count 7 day” value is reported as 1.2 × 10^7 and the “Bacteria Count 10 day” value is recorded as 5.6 × 10^7. Under setting [2], the “Bacteria Count 3 day” value was <4.0 × 10^1, the “Bacteria Count 7 day” value is <4.0 × 10^1 and the “Bacteria Count 10 day” value is on record as <4.0 × 10^1. Moreover, under setting [3], the “Bacteria Count 3 day” value is <4.0 × 10^1, the “Bacteria Count 7 day” value is listed as <4.0 × 10^1 and the “Bacteria Count 10 day” value is given as <4.0 × 10^1.

Values taken from patent publication US6641707B2, “Biodegradation-resistant electrodepositable coating compositions and methods related thereto” (PPG Industries Ohio, Inc., priority 2001, dated 2003).
